Source: patent US20240350643A1, “PROTEIN DEGRADATION AGENT” (SUZHOU KINTOR PHARMACEUTICALS, INC., priority 2021, published 2024)
Like-named read-outs stand apart in the source and are kept apart here.

Legend:
[1] = target: T1, c-Myc protein (Homo sapiens, UniProt P01106); test: Ability of compounds to degrade c-Myc protein in HL60 cells (ELISA); type: cell-based; conditions: HL-60, 1 μM compound, 24 h, read-out: HL60 cells Protein degradation rate (1 μM)
T1 construct: endogenous in cells; host or cells: HL60 cells

[2] = test system: HL60 cells; test: Anti-proliferation ability of compounds on HL60 cells (CTG); type: cell-based, human; conditions: 3 days, CellTiter-Glo, read-out: HL60 cells Proliferation inhibitory activity
Procedure, shortened: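 HL60 cells (20000/well) exposed to serially diluted compounds (0.1% DMSO vehicle control) for 3 days. Viability read by CellTiter-Glo luminescence; IC50 fitted from inhibition rates.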

T1 sequence (P01106 whole entry): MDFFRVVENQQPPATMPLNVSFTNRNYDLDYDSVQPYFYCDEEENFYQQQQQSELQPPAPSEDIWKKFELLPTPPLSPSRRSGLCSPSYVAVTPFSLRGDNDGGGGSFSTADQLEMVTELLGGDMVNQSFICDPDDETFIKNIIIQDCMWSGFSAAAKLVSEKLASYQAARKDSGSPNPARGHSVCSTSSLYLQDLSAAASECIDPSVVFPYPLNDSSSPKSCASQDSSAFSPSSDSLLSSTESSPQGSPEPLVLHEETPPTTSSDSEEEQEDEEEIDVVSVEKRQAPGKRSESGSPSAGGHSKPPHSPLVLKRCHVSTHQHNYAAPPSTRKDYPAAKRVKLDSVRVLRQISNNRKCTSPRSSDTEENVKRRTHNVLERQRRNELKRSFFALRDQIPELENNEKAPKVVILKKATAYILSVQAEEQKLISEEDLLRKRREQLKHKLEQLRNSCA

Row | Compound | inhibition at 1 µM [1] | IC50 ([2]; Homo sapiens, HL-60, 72 h) | IC50 [2]
1 | O=C(Cc1c(F)ccc2ccccc12)NCc1ccc(CNC(=O)c2ccc3c(c2)CN(C2CCC(=O)NC2=O)C3=O)cc1 (stereo not shown) [A154] | 60 to 90% | 1.2 ± 0.1 nM | 
2 | O=C(Cc1cccc2ccc(F)cc12)NCc1ccc(CNC(=O)c2ccc3c(c2)CN(C2CCC(=O)NC2=O)C3=O)cc1 (stereo not shown) [A155] | 60 to 90% | 3 ± 0.6 nM | 
3 | CN(CCn1c2ccccc2c2cccnc21)Cc1ccc(CNC(=O)c2ccc3c(c2)CN(C2CCC(=O)NC2=O)C3=O)cc1 (stereo not shown) [A156] | 60 to 90% | < 3 nM | 
4 | O=C(Cn1c2ccccc2c2cccnc21)NCc1ccc(CNC(=O)c2ccc3c(c2)CN(C2CCC(=O)NC2=O)C3=O)c(F)c1 (stereo not shown) [A157] | 60 to 90% | 0.5 ± 0.1 nM | 
5 | O=C(Cc1nccc2ccccc12)NCc1ccc(CNC(=O)c2ccc3c(c2)CN(C2CCC(=O)NC2=O)C3=O)c(F)c1 (stereo not shown) [A158] | 30 to 60% | 3.3 ± 0.3 nM | 
6 | O=C(Cc1cccc2ccccc12)NCc1ccc(CNC(=O)c2ccc3c(c2)CN(C2CCC(=O)NC2=O)C3=O)c(C(F)(F)F)c1 (stereo not shown) [A159] | 60 to 90% | 2.2 ± 0.8 nM | 
7 | O=C(Cn1c2ccccc2c2cccnc21)NCc1ccc(CNC(=O)c2ccc3c(c2)CN(C2CCC(=O)NC2=O)C3=O)c(C(F)(F)F)c1 (stereo not shown) [A160] | 60 to 90% |  | 0.4 ± 0.3 nM
8 | O=C(Cc1c(F)ccc2ccccc12)NCc1ccc(CNC(=O)c2ccc3c(c2)CN(C2CCC(=O)NC2=O)C3=O)c(C(F)(F)F)c1 (stereo not shown) [A161] | 60 to 90% | 0.9 ± 0.1 nM | 
9 | O=C(Cc1cccc2ccc(F)cc12)NCc1ccc(CNC(=O)c2ccc3c(c2)CN(C2CCC(=O)NC2=O)C3=O)c(C(F)(F)F)c1 (stereo not shown) [A162] | 60 to 90% | 1.9 ± 0.2 nM | 
10 | O=C1CCC(N2Cc3cc(C(=O)NCc4ccc(C5(NC(=O)Cc6cccc7ccccc67)CC5)cc4F)ccc3C2=O)C(=O)N1 (stereo not shown) [A163] | 60 to 90% | 1.3 ± 0.3 nM | 
11 | O=C1CCC(N2Cc3cc(C(=O)NCc4ccc(C5(NC(=O)Cn6c7ccccc7c7cccnc76)CC5)cc4F)ccc3C2=O)C(=O)N1 (stereo not shown) [A164] | 60 to 90% | 2.4 ± 0.3 nM | 
12 | O=C(Cc1cccc2ccccc12)NCc1ccc(CC(=O)Nc2ccc3c(c2)C(=O)N(C2CCC(=O)NC2=O)C3=O)cc1 (stereo not shown) [A165] | 60 to 90% | 27.9 ± 19.5 nM | 
13 | O=C(Cn1c2ccccc2c2cccnc21)NCc1ccc(CC(=O)Nc2ccc3c(c2)C(=O)N(C2CCC(=O)NC2=O)C3=O)cc1 (stereo not shown) [A166] | 60 to 90% | 1.7 ± 0.3 nM | 
14 | CN(CCc1cccc2ccccc12)Cc1ccc(CC(=O)Nc2ccc3c(c2)C(=O)N(C2CCC(=O)NC2=O)C3=O)cc1 (stereo not shown) [A167] | 60 to 90% | 2.1 ± 1.1 nM | 
15 | CN(CCn1c2ccccc2c2cccnc21)Cc1ccc(CC(=O)Nc2ccc3c(c2)C(=O)N(C2CCC(=O)NC2=O)C3=O)cc1 (stereo not shown) [A168] | 60 to 90% | 2.6 ± 0.7 nM | 
16 | CN(CCc1ccc(Cl)cc1Cl)Cc1ccc(CC(=O)Nc2ccc3c(c2)C(=O)N(C2CCC(=O)NC2=O)C3=O)cc1 (stereo not shown) [A169] | 60 to 90% | 1.9 ± 0.6 nM | 
17 | CN(CCc1ccc(Cl)c(Cl)c1)Cc1ccc(CC(=O)Nc2ccc3c(c2)C(=O)N(C2CCC(=O)NC2=O)C3=O)cc1 (stereo not shown) [A170] | 60 to 90% | 4 ± 1.7 nM | 
18 | O=C(Cn1c2ccccc2c2cccnc21)NCc1ccc(CC(=O)Nc2ccc3c(c2)CN(C2CCC(=O)NC2=O)C3=O)cc1 (stereo not shown) [A171] | 60 to 90% | 0.3 ± 0.2 nM | 
19 | O=C(Cc1nccc2ccccc12)NCc1ccc(CC(=O)Nc2ccc3c(c2)CN(C2CCC(=O)NC2=O)C3=O)cc1 (stereo not shown) [A172] | 60 to 90% | < 3 nM | 
20 | O=C(Cc1cccc2cccnc12)NCc1ccc(CC(=O)Nc2ccc3c(c2)CN(C2CCC(=O)NC2=O)C3=O)cc1 (stereo not shown) [A173] | 60 to 90% | < 3 nM | 
21 | CN(CCc1ccc(Cl)cc1Cl)Cc1ccc(CC(=O)Nc2ccc3c(c2)CN(C2CCC(=O)NC2=O)C3=O)c(F)c1 (stereo not shown) [A174] | 60 to 90% | < 3 nM | 
22 | O=C(Cc1cccc2ccccc12)NCc1ccc(CNCc2ccc3c(c2)C(=O)N(C2CCC(=O)NC2=O)C3=O)cc1 (stereo not shown) [A175] | 60 to 90% | 14.4 ± 6.4 nM | 

Results, then the compound that gave them:

Row | inhibition at 1 µM [1] | IC50 ([2]; Homo sapiens, HL-60, 72 h) | IC50 [2] | Compound
23 | 60 to 90% | 2.1 ± 0.6 nM |  | O=C(Cn1c2ccccc2c2cccnc21)NCc1ccc(CNCc2ccc3c(c2)C(=O)N(C2CCC(=O)NC2=O)C3=O)cc1 (stereo not shown) [A176]
24 | 60 to 90% | 9.5 nM |  | O=C(Cc1cccc2ccccc12)NCc1ccc(C(=O)NCc2ccc3c(c2)C(=O)N(C2CCC(=O)NC2=O)C3=O)cc1 (stereo not shown) [A177]
25 | 60 to 90% | 16.9 nM |  | O=C(Cn1c2ccccc2c2cccnc21)NCc1ccc(C(=O)NCc2ccc3c(c2)C(=O)N(C2CCC(=O)NC2=O)C3=O)cc1 (stereo not shown) [A178]
26 | 60 to 90% | 14 ± 4.1 nM |  | O=C1CCC(N2C(=O)c3ccc(CNCc4ccc(C(=O)NCCc5cccc6ccccc56)cc4)cc3C2=O)C(=O)N1 (stereo not shown) [A179]
27 | 60 to 90% | 133 ± 48.4 nM |  | O=C1CCC(N2C(=O)c3ccc(CNCc4ccc(C(=O)NCCn5c6ccccc6c6cccnc65)cc4)cc3C2=O)C(=O)N1 (stereo not shown) [A180]
28 | 60 to 90% | 2 ± 1 nM |  | CN(CCc1cccc2ccccc12)Cc1ccc(CNCc2ccc3c(c2)C(=O)N(C2CCC(=O)NC2=O)C3=O)cc1 (stereo not shown) [A181]
29 | 60 to 90% | 1.1 ± 0.8 nM |  | CN(CCn1c2ccccc2c2cccnc21)Cc1ccc(CNCc2ccc3c(c2)C(=O)N(C2CCC(=O)NC2=O)C3=O)cc1 (stereo not shown) [A182]
30 | 60 to 90% | 16.7 ± 2.5 nM |  | CN(CCc1cccc2cccnc12)Cc1ccc(CNCc2ccc3c(c2)C(=O)N(C2CCC(=O)NC2=O)C3=O)cc1 (stereo not shown) [A183]
31 | 60 to 90% | 11.9 ± 5.5 nM |  | CN(CCc1ccc(Cl)c(Cl)c1)Cc1ccc(CNCc2ccc3c(c2)C(=O)N(C2CCC(=O)NC2=O)C3=O)cc1 (stereo not shown) [A184]
32 | 60 to 90% | 7.5 ± 1.1 nM |  | CN(CCc1ccc(Cl)cc1Cl)Cc1ccc(CNCc2ccc3c(c2)C(=O)N(C2CCC(=O)NC2=O)C3=O)cc1 (stereo not shown) [A185]
33 | 60 to 90% | 32.1 ± 1.3 nM |  | O=C(Cc1nccc2ccccc12)NCc1ccc(CNCc2ccc3c(c2)C(=O)N(C2CCC(=O)NC2=O)C3=O)cc1 (stereo not shown) [A186]
34 | 60 to 90% | 9.2 ± 0.5 nM |  | O=C(Cc1cccc2cccnc12)NCc1ccc(CNCc2ccc3c(c2)C(=O)N(C2CCC(=O)NC2=O)C3=O)cc1 (stereo not shown) [A187]
35 | 30 to 60% | 279 ± 33.8 nM |  | CN(Cc1ccc(CNC(=O)Cc2nccc3ccccc23)cc1)Cc1ccc2c(c1)C(=O)N(C1CCC(=O)NC1=O)C2=O (stereo not shown) [A188]
36 | 60 to 90% | 5.6 ± 1 nM |  | O=C(Cc1cccc2ccccc12)NCc1ccc(CNCc2ccc3c(c2)C(=O)N(C2CCC(=O)NC2=O)C3=O)c(F)c1 (stereo not shown) [A189]
37 | 60 to 90% | 1.7 ± 0.6 nM |  | O=C(Cn1c2ccccc2c2cccnc21)NCc1ccc(CNCc2ccc3c(c2)C(=O)N(C2CCC(=O)NC2=O)C3=O)c(F)c1 (stereo not shown) [A190]
38 | 60 to 90% | 16.9 ± 2.2 nM |  | O=C(Cc1cccc2ccccc12)NCc1ccc(COCc2ccc3c(c2)C(=O)N(C2CCC(=O)NC2=O)C3=O)cc1 (stereo not shown) [A191]
39 | 60 to 90% | 7.7 ± 2.1 nM |  | O=C(Cn1c2ccccc2c2cccnc21)NCc1ccc(COCc2ccc3c(c2)C(=O)N(C2CCC(=O)NC2=O)C3=O)cc1 (stereo not shown) [A192]
40 | 60 to 90% | 0.6 ± 0.1 nM |  | O=C(Cc1cccc2ccccc12)NCc1ccc(CNCc2ccc3c(c2)CN(C2CCC(=O)NC2=O)C3=O)cc1 (stereo not shown) [A193]
41 | 60 to 90% | 0.14 ± 0.01 nM |  | O=C(Cn1c2ccccc2c2cccnc21)NCc1ccc(CNCc2ccc3c(c2)CN(C2CCC(=O)NC2=O)C3=O)cc1 (stereo not shown) [A194]
42 | 60 to 90% | 1.4 ± 0.01 nM |  | O=C(Cc1c(F)ccc2ccccc12)NCc1ccc(CNCc2ccc3c(c2)CN(C2CCC(=O)NC2=O)C3=O)cc1 (stereo not shown) [A195]
43 | 60 to 90% | 0.5 ± 0.1 nM |  | O=C(Cc1cccc2ccccc12)NCc1ccc(CNCc2ccc3c(c2)CN(C2CCC(=O)NC2=O)C3=O)c(F)c1 (stereo not shown) [A196]
44 | 60 to 90% | 3.3 ± 0.6 nM |  | O=C1CCC(N2Cc3cc(NC(=O)C[C@H]4CC[C@H](NC(=O)NCc5cccc6ccccc56)CC4)ccc3C2=O)C(=O)N1 (stereo partly shown) [A199]
45 | 60 to 90% | 2.5 ± 1 nM |  | O=C(CN1CCCc2ccccc21)NCc1ccc(CNC(=O)c2ccc3c(c2)CN(C2CCC(=O)NC2=O)C3=O)cc1 (stereo not shown) [A200]
46 | 60 to 90% | 2 ± 0.9 nM |  | O=C(CN1CCCc2ccccc21)NCc1ccc(CC(=O)Nc2ccc3c(c2)CN(C2CCC(=O)NC2=O)C3=O)cc1 (stereo not shown) [A201]
47 | 60 to 90% | 6.6 ± 0.8 nM |  | O=C(CN1CCc2cccnc21)NCc1ccc(CNC(=O)c2ccc3c(c2)CN(C2CCC(=O)NC2=O)C3=O)cc1 (stereo not shown) [A203]
